Source: patent US20250367209A1 (SOUTHERN RESEARCH INSTITUTE, priority 2022, published 2025)
Read-outs that look alike come from different tables or passages of the source.

Key:
[1] = Solubility; type: physicochemical; conditions: for ADME Sol (μM): Table 3; for Solubility: Table 2
[2] = Metabolic stability in human liver microsomes; type: in vitro ADME; conditions: Table 3, read-out: ADME t1/2 (min): HLMt1/2
Text: (§1) A computational analysis of the top five hits was then completed to assess the physical attributes of the compounds emerging from the HTS. The target profile for drug-like properties included evaluation of molecular weight (MW), total polar surface area (PSA, the surface sum of all polar atoms on the molecule), solubility, metabolic stability, and partition coefficient (LogD). In general, MW<[…] and PSA <70 Å^2 were targeted, which generally allows for blood-brain barrier (BBB) permeability. Compounds with PSA >100 A^2 are generally poor at permeating cell membranes. Solubility was targeted at >10 μM at pH 7.4 and 40-60% of compound remaining after 60 minutes of incubation in mouse or human liver microsomes (an indicator of compound stability after first-pass metabolism). LogD is the log of the ratio of concentrations of a compound in two immiscible solvents at equilibrium. Values ranging from 2-4 were targeted, typical for CNS drugs. Based on these criteria, compound no. 55 was selected as the top hit for optimization. Compound no.

[3] = molecular target: Tau-FynSH3 interaction (Homo sapiens (Human), UniProt P10636); assay: Tau-FynSH3 AlphaScreen; type: binding
Text: Human Fyn-SH3 domain with GST-tag at the N-terminus and a Strep-tag II ([…]) at the C-terminus (GST-Fyn-SH3-Strep) was cloned into pPR-IBA1 vector (IBA Lifesciences) (Cochran, et al. (2014) J. Biomol. Screen. 19, 1338-1349). Codon-optimized human 4R2N Tau for E. coli expression with a Strep-tag II at the C-terminus (His-Tau-Strep) was cloned into pET-28a(+) vector (Novagen). The constructs were transformed into E. coli BL-21(DE3) competent cells (Novagen). For GST-Fyn-SH3-Strep purification, a single colony was inoculated in Luria-Bertani (LB) broth at 37° C. overnight. 10 mL cell culture was added into 500 mL LB medium and cultured at 37° C. 0.5 mM Isopropyl β-D-1-thiogalactopyranoside (IPTG) was added into the culture when OD600 reached 0.7. Cells were further cultured at 25° C. for 4 hours and harvested. Cell pellet was resuspended in lysis buffer (20 mM Tris pH 7.9, 300 mM NaCl, 1 mM TCEP) with 1 tablet of EDTA-free protease inhibitors (ThermoFisher) and 1 mg/ml lysozyme. Cells were disrupted by sonication and debris was removed by centrifugation at 9500 rpm for 1 hour. Supernatant was loaded onto a glutathione-sepharose column (Cytiva). The column was washed in lysis buffer and protein eluted in lysis buffer containing 25 mM reduced glutathione. For His-Tau-Strep protein purification, cells were inoculated in LB broth medium and cultured at 37° C. overnight. A 10 mL overnight culture was added to 500 mL of auto-induction medium (Studier, F. W. (2005) Protein Expr Purif 41, 207-34) and cells were cultured at 37° C. for about 5 hours. The temperature was lowered to 18° C., and cells were cultured overnight. Cells were harvested and resuspended in lysis buffer with 20 mM imidazole, protease inhibitors, and lysozyme. Cells were disrupted by sonication and cell pellets were spun down at 9500 rpm for 1 hour. Supernatant was loaded onto Ni-NTA column (Cytiva) and the column was washed in lysis buffer with 20 mM imidazole. His-Tau-Strep protein was eluted in lysis buffer containing 400 mM imidazole. Both eluted GST-Fyn-SH3-Strep and His-Tau-Strep protein solutions were passed through G-25 desalting column (Cytiva) with lysis buffer and loaded onto high capacity Strep-Tactin column (IBA Lifesciences). The columns were washed in Buffer W (IBA Life sciences) and proteins were eluted in Buffer E (IBA life sciences). The eluted proteins were passed through G-25 desalting column again. Both GST-Fyn-Strep and His-Tau-Strep proteins were concentrated and diluted 1:1 in ethylene glycol as a cryoprotectant for storage at −80° C.
AlphaScreen was conducted with 10 µg/mL of glutathione donor beads (PerkinElmer, Waltham, MA) and nickel chelate acceptor beads (PerkinElmer) in 10 mM Bis-Tris (pH 7.0), 1 mM TCEP, 0.02% casein, and 0.1% Tween-20. Compounds were plated first followed by addition of one the proteins at 600 nM and incubation for 30 min. The second protein was added and incubated for 30 mn, then the beads were added simultaneously and the final mixture was incubated for 2 hours. Experiments were conducted in 384-well plates (6007290; PerkinElmer) and results were read on a PHERAstar plate reader (BMG Labtech, Cary, NC).
˜50,000 compounds from the Enamine and Southern Research libraries were screened to identify Tau-FynSH3 interaction inhibitors using an AlphaScreen assay (Cochran, et al. (2014) J. Biomol. Screen. 19, 1338-1349). Compounds that were >3 standard deviations above mean inhibition were selected, yielding 1,852 hits (FIG. 1A). […]. These 39 compounds were tested in a live-cell BRET assay to measure Tau-Fyn interaction in cells. […]. Screen. 19, 1338-1349).

[4] = Metabolic stability in mouse liver microsomes; type: in vitro ADME; conditions: for half-life: mouse, liver microsomes, Table 3, read-out: ADME t1/2 (min): MLMt1/2
[5] = Partition coefficient (LogD); type: physicochemical; conditions: Table 3; read-out: ADME LogD
Text: as §1

[6] = tested on: primary rat neurons; assay: Modified MTT assay of Aβ toxicity in primary neurons; type: cell-based; conditions: compound 0.3, 3 or 15 μM, 90-minute pretreatment, 2.5 μM Aβ, 24 hours
Text: Primary neuron cultures: All animal procedures were approved by the Institutional Animal Care and Use Committee at the University of Alabama at Birmingham (UAB). As before (Rush, et al. (2020) Neurobiol Dis 134, 104668; Voskobiynyk, et al. (2020) eLife 9, e57354), primary rat neurons were isolated from timed-pregnant Sprague-Dawley rats. Briefly, dams were euthanized with isoflurane anesthesia asphyxiation, and hippocampal tissue was isolated from E19 embryos in Hibernate E, then digested in papain for 10 minutes at 37° C. Neurons were triturated into a single cell suspension in Neurobasal supplemented with B-27, L-Glutamine, and 10% FBS, then plated in 96-well plates coated with PDL and laminin at 30,000 neurons per well in 200 uL medium or in 24-well coated plates with or without coverslips at 50,000 per well. Cultures were maintained at 37° C. with 5% CO2. Twenty-four hours after plating (DIV1), two 50% media changes with Neurobasal plus B-27 and L-Glutamine without FBS, and 5 μM cytosine β-D-arabinofuranoside was added to prevent glial proliferation. 50% media changes were performed at DIV7 and DIV14 with serum-free supplemented Neurobasal and experiments were started at DIV19.
Aβ oligomer preparation: As before (Rush, et al. (2020) Neurobiol Dis 134, 104668), lyophilized recombinant Aβ42 was dissolved in HFIP, dried overnight, then stored at −20° C. until oligomerization. To oligomerize, Aβ was dissolved in DMSO to 1 mM, then diluted to 100 µM in PBS, then sonicated and left on ice for 24 hours. Immediately prior to use, Aβ was centrifuged at 4° C. for 10 minutes at 14,000×g. Vehicle was prepared as well in identical fashion except lacking the Aβ peptide.
Aβ toxicity assays: The modified MTT and MAP2 assays were adapted from a recent study (Rush, et al. (2020) Neurobiol Dis 134, 104668). Briefly, at DIV19, media on the neurons was reduced to […], then compound was added to final concentration of 0 μM, 0.3 μM, 3 μM, or 15 μM with even amounts of DMSO. After 90-minute pretreatment with compound, 2.5 μM Aβ was added.
The modified MTT assay was performed 24 hours after Aβ application. 100 μM MTT was applied to neurons and incubated at 37° C. for one hour. Media was removed, then replaced with 15 μL 1.6% Tween20 in PBS and incubated on a shaker at 100 rpm for 5 minutes. The Tween was then removed and transferred to a 384-well clear-bottom plate and replaced with 15 μL isopropanol. Plates were again agitated for 5 minutes at RT, then isopropanol was transferred to the 384-well plate. Absorbance was then read at 590 nm on a plate reader, with 660 nm used as a reference. The ratio of Tween soluble MTT to isopropanol soluble (Tween-insoluble) MTT was calculated for each sample, then normalized to the vehicle group average.

[7] = molecular target: Tau-Fyn interaction (Homo sapiens (Human), UniProt P10636); assay: Tau-Fyn PLA screening in HEK-293 cells; type: cell-based; conditions: compound 15 μM, 24 hours
Description: Tau-Fyn PLA screening in HEK-293 cells: For Tau-Fyn PLA in HEK-293 cells, we used the same plasmids as before (Rush, et al. (2020) Neurobiol Dis 134, 104668): human 4R2N Tau with an N-terminal mKate2 tag in a pcDNA3.1 vector and human Fyn with an N-terminal Myc tag in a pCMV-Sport6 vector grown in Stellar E. coli. HEK-293 cells were plated on coverslips coated with PDL and laminin in a 24-well plate in DMEM supplemented with 10% FBS and 1% PenStrep. Cells were transfected with 125 ng of Tau-mKate2 and Fyn plasmids with 1.5 μL Fugene in plain DMEM. After 24 hours, compound was applied at 15 μM. Twenty-four hours after application, cells were fixed. PLA protocol was the same as above except for different primary antibodies (Tau5 1:500, Fyn3 1:250). After image acquisition, PLA density was calculated as PLA puncta (as above) divided by cell area to account for differences in confluency. Cell area was defined with ImageJ as % Area after theresholding Tau-mKate2 fluorescence because it filled the cells evenly. Puncta/cell area was then normalized to vehicle-treated slides from that experiment.

[8] = Table 3, read-out: Alpha screen IC50
[9] = Table 2, Tau-FynSH3 inhibitory activity in the AlphaScreen, read-out: IC50

Chain of Tau-FynSH3 interaction (P10636 other isoform, or with tags, fused parts or gaps): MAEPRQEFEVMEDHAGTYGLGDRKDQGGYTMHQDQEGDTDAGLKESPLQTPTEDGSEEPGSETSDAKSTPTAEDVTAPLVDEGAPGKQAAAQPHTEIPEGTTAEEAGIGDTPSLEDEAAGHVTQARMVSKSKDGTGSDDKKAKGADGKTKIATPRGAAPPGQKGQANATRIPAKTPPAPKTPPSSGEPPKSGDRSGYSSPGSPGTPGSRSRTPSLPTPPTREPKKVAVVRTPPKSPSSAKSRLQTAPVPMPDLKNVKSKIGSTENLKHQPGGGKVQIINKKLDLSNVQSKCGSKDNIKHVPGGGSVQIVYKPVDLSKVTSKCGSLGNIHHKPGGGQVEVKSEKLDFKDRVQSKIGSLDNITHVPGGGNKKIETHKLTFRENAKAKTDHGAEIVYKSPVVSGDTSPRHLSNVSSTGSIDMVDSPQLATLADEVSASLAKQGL
Chain of Tau-Fyn interaction (P10636 other isoform, or with tags, fused parts or gaps): as above

ADME Sol (μM) [1] | half-life [2] [min] | IC50 [3, 8] [µM] | half-life [4] [min] | logD [5] | Compound | other results
Sol = 69 μM | 78 | 1.92 | 22 | 2 | O=C(CCN1C(=O)CSc2cc(F)ccc21)Nc1nnc(-c2ccccn2)[nH]1 [compound 7, 3-(7-FLUORO-3-Oxo-2H-BENZO[B][1,4]THIAZIN-4(3H)-YL)-N-(5-(PYRIDIN-2-YL)-4H-1,2,4-TRIAZOL-3-YL)PROPANAMIDE] | 
Sol = 81 μM | 53 | 2.97 | 20 | 1.8 | O=C(CCN1C(=O)CSc2cc(F)c(F)cc21)Nc1nnc(-c2ccccn2)[nH]1 [compound 9, 3-(6,7-DIFLUORO-3-OXO-2H-BENZO[B][1,4]THIAZIN-4(3H)-YL)-N-(5-(PYRIDIN-2-YL)-4H-1,2,4-TRIAZOL-3-YL)PROPANAMIDE] | 
Sol = 65 μM | 238 | 1.08 | 53 | 1.8 | O=C(CN1C(=O)CSc2ccc(F)cc21)Nc1nnc(-c2ccccn2)[nH]1 [compound 15, 2-(6-FLUORO-3-OXO-2H-BENZO[B][1,4]THIAZIN-4(3H)-YL)-N-(5-(PYRIDIN-2-YL)-4H-1,2,4-TRIAZOL-3-YL)ACETAMIDE] | 
Sol = 9 μM | 74 | 2.58 | 26 | 2.3 | O=C(CN1C(=O)CSc2ccc(Cl)cc21)Nc1nnc(-c2ccccn2)[nH]1 [compound 16, 2-(6-CHLORO-3-OXO-2H-BENZO[B][1,4]THIAZIN-4(3H)-YL)-N-(5-(PYRIDIN-2-YL)-4H-1,2,4-TRIAZOL-3-YL)ACETAMIDE] | 
 |  |  |  |  | O=C(CN1CCSc2cc(Cl)ccc21)Nc1nnc(-c2ccccn2)[nH]1 [compound 58] | Solubility [1]: <1 µM
 |  |  |  |  | Cc1ccc2c(c1)SCCN2CC(=O)Nc1nnc(-c2ccccn2)[nH]1 [compound 60] | Solubility [1]: <1 µM
 |  |  |  |  | O=C(CN1CCSc2cc(C(=O)O)ccc21)Nc1nnc(-c2ccccn2)[nH]1 [compound 64] | IC50 [3, 9]: < 0.2 µM; MLM t1/2 ([4]; Table 2): >300 min
 |  |  |  |  | O=C(CCN1C(=O)CCc2ccccc21)Nc1nnc(-c2ccccn2)[nH]1 [compound no. 3, 3-(2-Oxo-3,4-DIHYDROQUINOLIN-1(2H)-YL)-N-(5-(PYRIDIN-2-YL)-4H-1,2,4-TRIAZOL-3-YL)PROPANAMIDE] | IC50 [3, 9]: > 100 µM
 |  | 3.24 |  |  | O=C(CCN1C(=O)CSc2ccccc21)Nc1ncc(-c2ccccn2)[nH]1 [compound no. 5, 3-(3-Oxo-2H-BENZO[B][1,4]THIAZIN-4(3H)-YL)-N-(5-(PYRIDIN-2-YL)-1H-IMIDAZOL-2-YL)PROPANAMIDE] | 
 |  |  |  |  | O=C(CCN1C(=O)CSc2ccccc21)Nc1ccc(-n2cncn2)cc1 [compound no. 37, N-(4-(1H-1,2,4-TRIAZOL-1-YL)PHENYL)-3-(3-oxo-2,3-DIHYDRO-4H-BENZO[B][1,4]THIAZIN-4-YL)PROPANAMIDE] | AlphaScreen activity (in words) [3]: no observed AlphaScreen activity; IC50 [3, 9]: > 100 µM; Alpha screen IC50 (μM) ([3]; Table 3): Inactive; Aβ toxicity / Aβ-induced membrane trafficking dysfunction, modified MTT assay [6]: did not ameliorate Aβ toxicity
 |  |  |  |  | O=C(CN1C(=O)CSc2ccccc21)Nc1nnc(-c2ccccn2)[nH]1 [compound no. 56] | improvement in activity in the Tau-FynSH3 AlphaScreen ([3]; compared to compound no. 55): five-fold improvement in activity; IC50 ([3]; read-out: IC50 in the Tau-FynSH3 AlphaScreen): 0.84 µM
 |  |  |  |  | O=C(CCN1CCSc2ccccc21)Nc1nnc(-c2ccccn2)[nH]1 [compound no. 57] | Tau-Fyn interaction in cells, Tau-Fyn PLA in HEK-293 cells [7]: did not reduce Tau-Fyn interaction in cells; Aβ toxicity / Aβ-induced membrane trafficking dysfunction, modified MTT assay [6]: did not
